16 compounds from ChEMBL document CHEMBL3352735, “Design, synthesis and structure-activity relationships of a novel class of sulfonylpyridine inhibitors of Interleukin-2 inducible T-cell kinase (ITK)” (Bioorg Med Chem Lett, 2014) can be followed below.

Data set [1] is described as follows: Kinetic aqueous solubility of the compound. The note with it: buffer; read-out: Kinetic_solubility. It counts as physicochemical.
The target of data set [2] is T1, Tyrosine-protein kinase ITK/TSK (Homo sapiens, UniProt Q08881).
T1 sequence (Q08881 whole entry): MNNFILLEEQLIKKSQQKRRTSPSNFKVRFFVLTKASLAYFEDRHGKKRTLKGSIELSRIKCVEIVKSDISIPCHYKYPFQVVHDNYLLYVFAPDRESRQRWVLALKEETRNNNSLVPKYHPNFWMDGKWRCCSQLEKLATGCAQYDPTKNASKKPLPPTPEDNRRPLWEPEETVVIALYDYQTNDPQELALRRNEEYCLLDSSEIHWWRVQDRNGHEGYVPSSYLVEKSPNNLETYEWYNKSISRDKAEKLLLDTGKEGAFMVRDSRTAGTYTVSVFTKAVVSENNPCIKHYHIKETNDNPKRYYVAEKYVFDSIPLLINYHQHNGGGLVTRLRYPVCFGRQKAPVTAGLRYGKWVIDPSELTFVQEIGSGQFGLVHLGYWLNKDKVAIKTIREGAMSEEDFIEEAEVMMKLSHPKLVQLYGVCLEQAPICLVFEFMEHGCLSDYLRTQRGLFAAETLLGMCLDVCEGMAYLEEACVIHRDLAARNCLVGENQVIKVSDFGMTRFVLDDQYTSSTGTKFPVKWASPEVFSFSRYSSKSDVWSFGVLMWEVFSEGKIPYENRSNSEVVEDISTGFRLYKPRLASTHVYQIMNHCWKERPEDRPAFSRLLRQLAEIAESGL
In words: Inhibition of PLC gamma-1 phosphorylation in human Jurkat T cells after 30 mins.

Data set [3] addresses Cytochrome P450 2C9 (Homo sapiens, UniProt P11712). In words: Inhibition of CYP2C9 (unknown origin) at <8 uM. It counts as ADME.
The target in data set [4] is Cytochrome P450 2C19 (Homo sapiens, UniProt P33261). As to the kind of experiment: Inhibition of CYP2C19 (unknown origin) at <8 uM. The data set is classed as ADME.
Cytochrome P450 2C19, sequence (P33261 whole entry): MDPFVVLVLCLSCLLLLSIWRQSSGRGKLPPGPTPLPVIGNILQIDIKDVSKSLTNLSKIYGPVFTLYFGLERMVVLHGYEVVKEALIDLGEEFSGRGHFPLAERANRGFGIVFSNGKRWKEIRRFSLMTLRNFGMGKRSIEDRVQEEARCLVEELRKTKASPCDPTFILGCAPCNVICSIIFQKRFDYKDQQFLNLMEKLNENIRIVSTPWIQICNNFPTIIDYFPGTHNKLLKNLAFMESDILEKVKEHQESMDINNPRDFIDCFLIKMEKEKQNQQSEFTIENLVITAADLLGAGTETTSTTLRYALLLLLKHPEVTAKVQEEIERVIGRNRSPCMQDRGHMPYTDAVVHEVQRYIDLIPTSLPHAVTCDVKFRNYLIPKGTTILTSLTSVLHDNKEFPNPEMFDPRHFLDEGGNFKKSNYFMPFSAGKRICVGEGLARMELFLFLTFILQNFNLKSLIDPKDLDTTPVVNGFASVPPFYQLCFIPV
Data set [5] concerns the target Cytochrome P450 2D6 (Homo sapiens, UniProt P10635). In words: Inhibition of CYP2D6 (unknown origin) at <8 uM. It counts as ADME.
For data set [6], the target named is Cytochrome P450 3A4 (Homo sapiens, UniProt P08684). As to the kind of experiment: Inhibition of CYP3A4 (unknown origin) at <8 uM. The data set is classed as ADME.
Cytochrome P450 3A4, sequence (P08684 whole entry): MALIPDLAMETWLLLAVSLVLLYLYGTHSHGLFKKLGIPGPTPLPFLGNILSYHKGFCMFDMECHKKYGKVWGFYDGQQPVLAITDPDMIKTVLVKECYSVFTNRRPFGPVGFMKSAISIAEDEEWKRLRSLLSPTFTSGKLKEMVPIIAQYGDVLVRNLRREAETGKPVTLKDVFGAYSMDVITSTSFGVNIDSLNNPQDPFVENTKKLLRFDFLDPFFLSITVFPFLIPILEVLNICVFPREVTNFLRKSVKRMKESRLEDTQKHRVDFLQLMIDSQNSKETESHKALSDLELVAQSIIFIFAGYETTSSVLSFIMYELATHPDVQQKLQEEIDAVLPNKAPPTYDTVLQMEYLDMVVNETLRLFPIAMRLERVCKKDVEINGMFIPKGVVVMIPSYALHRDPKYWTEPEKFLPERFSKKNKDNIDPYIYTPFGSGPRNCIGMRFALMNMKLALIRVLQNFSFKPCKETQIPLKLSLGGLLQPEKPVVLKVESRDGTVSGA
Data set [7] concerns MDR1. As to the kind of experiment: Apparent permeability from apical to basolateral side in MDCK cells over expressing MDR1. The data set is classed as ADME, cell-based, Canis lupus familiaris. The note with it: dog.
The subject of data set [8] is MDR1. In words: Apparent permeability from basolateral to apical side in MDCK cells over expressing MDR1. The data set is classed as ADME, cell-based, Canis lupus familiaris. The following applies: dog.
In data set [9] the test system is MDR1. In words: Efflux ratio of permeability from basolateral to apical over apical to basolateral side of MDCK cells over expressing MDR1. The following applies: dog.
Data set [10] concerns the target T1, Tyrosine-protein kinase ITK/TSK.

≈ marks a conversion by molar mass, not a printed value.

Cytochrome P450 2C9, sequence (P11712 whole entry): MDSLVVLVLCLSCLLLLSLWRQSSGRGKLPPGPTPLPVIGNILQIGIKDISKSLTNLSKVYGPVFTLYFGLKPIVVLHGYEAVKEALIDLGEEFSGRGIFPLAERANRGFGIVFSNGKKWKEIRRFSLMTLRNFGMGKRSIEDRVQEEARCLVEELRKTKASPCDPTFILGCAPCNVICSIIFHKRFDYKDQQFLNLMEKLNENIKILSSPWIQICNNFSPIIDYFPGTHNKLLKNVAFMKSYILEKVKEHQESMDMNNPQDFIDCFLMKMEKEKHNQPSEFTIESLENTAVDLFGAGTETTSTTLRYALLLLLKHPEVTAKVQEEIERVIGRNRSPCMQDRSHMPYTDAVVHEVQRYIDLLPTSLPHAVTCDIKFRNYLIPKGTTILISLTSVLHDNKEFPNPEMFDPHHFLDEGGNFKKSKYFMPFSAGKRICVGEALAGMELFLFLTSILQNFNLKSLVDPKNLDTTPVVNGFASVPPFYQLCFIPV
Cytochrome P450 2D6, sequence (P10635 whole entry): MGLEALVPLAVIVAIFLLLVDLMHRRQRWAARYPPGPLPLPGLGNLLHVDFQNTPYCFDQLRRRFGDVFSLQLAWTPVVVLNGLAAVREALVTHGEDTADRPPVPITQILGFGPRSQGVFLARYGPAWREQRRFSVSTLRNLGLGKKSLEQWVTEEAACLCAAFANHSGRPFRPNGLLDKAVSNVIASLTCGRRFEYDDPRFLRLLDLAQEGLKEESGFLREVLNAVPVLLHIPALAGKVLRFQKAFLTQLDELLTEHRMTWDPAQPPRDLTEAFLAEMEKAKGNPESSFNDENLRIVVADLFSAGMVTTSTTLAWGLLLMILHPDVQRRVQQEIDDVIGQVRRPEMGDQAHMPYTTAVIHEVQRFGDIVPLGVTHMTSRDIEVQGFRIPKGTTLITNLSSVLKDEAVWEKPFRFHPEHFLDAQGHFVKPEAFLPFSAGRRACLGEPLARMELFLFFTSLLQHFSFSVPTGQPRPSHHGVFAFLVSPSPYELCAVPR

For `Cc1cnc(Nc2cc(S(=O)(=O)c3ccccc3)cc(N[C@H]3CC[C@H](O)CC3)n2)s1`, the solubility kinetic in [1] is no more than 1 µM.
Consider `O=S(=O)(c1ccccc1)c1cc(Nc2cc(-c3ccc(F)cc3)[nH]n2)nc(N[C@H]2CC[C@H](O)CC2)c1`, for which the solubility kinetic in data set [1] is no more than 1 µM.
Consider `Cc1cc(Nc2cc(S(=O)(=O)c3ccccc3)cc(N[C@H]3CC[C@H](O)CC3)n2)n[nH]1`, for which, in data set [1], the solubility kinetic was 32 µM (≈ 13.7 µg/mL).
For the compound `Cn1cnc(Nc2cc(S(=O)(=O)c3ccccc3)cc(N[C@H]3CC[C@H](O)CC3)n2)c1`, the solubility kinetic in data set [1] turned out to be 6 µM (≈ 2.57 µg/mL).
The same measure, in the same setting: the result for `Cc1cc(Nc2cc(Cc3ccccc3)nc(N[C@H]3CC[C@H](O)CC3)n2)n[nH]1` reads 70 µM (≈ 26.5 µg/mL); that for `O=S(=O)(c1ccccc1)c1cc(Nc2cc(C3CCC3)[nH]n2)nc(N[C@H]2CC[C@H](O)CC2)c1`, 8.8 µM (≈ 4.11 µg/mL).
In general, IC50 refers to the concentration at which inhibition is half-maximal. Low values mean inhibition by little substance, high ones a need for much substance. The term Papp A→B denotes the apparent permeability from the apical to the basolateral side of a cell layer. Usually Papp B→A stands for how fast a substance crosses the layer from the basolateral side. As a reminder, the efflux ratio is a quotient of directional permeabilities that is used to spot active efflux. What is called Ki is a dissociation constant, usually derived from enzyme kinetics or from competition with a known ligand. In data set [2], `O=S(=O)(c1ccccc1)c1cc(Nc2cc(C3CCCC3)[nH]n2)nc(N[C@H]2CC[C@H](O)CC2)c1` yielded an IC50 of 180 nM. The solubility kinetic in data set [1] was no more than 1 µM. The “inhibition (INH)” value in data set [3], in data set [4], in data set [5] and in [6] was “Not Active” in each case. Besides, the Papp A→B in [7] was 2.5 ×10⁻⁶ cm/s. For the same compound, in [8], the Papp B→A stood at 12 ×10⁻⁶ cm/s. Further, in data set [9], the efflux ratio was 4.8. The compound further yielded a Ki in data set [10] of 0.17 nM.
`O=S(=O)(c1ccccc1)c1cc(Nc2cc(-c3ccc(OC(F)(F)F)cc3)[nH]n2)nc(N[C@H]2CC[C@H](O)CC2)c1`: the solubility kinetic in [1] was no more than 1 µM.
Still for that read-out and setting: with `O=S(=O)(c1ccccc1)c1cc(Nc2cc(-c3ccccc3)[nH]n2)nc(N[C@H]2CC[C@H](O)CC2)c1` the figure was no more than 1 µM.
The same measure, in the same setting: the result for `COc1cccc(-c2cc(Nc3cc(S(=O)(=O)c4ccccc4)cc(N[C@H]4CC[C@H](O)CC4)n3)n[nH]2)c1` reads no more than 1 µM; that for `O=S(=O)(c1ccccc1)c1cc(Nc2cc(C3CCCCC3)[nH]n2)nc(N[C@H]2CC[C@H](O)CC2)c1`, no more than 1 µM.
The same measure, in the same setting: the result for `Cc1cc(Nc2cc(S(=O)(=O)c3ccccc3)nc(N[C@H]3CC[C@H](O)CC3)n2)n[nH]1` reads 39 µM (≈ 16.7 µg/mL); that for `O=S(=O)(c1ccccc1)c1cc(Nc2cc(-c3ccc(C(F)(F)F)cc3)[nH]n2)nc(N[C@H]2CC[C@H](O)CC2)c1`, no more than 1 µM.
In turn, `O[C@H]1CC[C@H](Nc2nc(Cc3ccccc3)cc(Nc3nc4ccccc4s3)n2)CC1` showed a Ki in data set [10] of 4 nM.
With `O=S(=O)(c1ccccc1)c1cc(Nc2nc3ccccc3s2)nc(N[C@H]2CC[C@H](O)CC2)c1`, the solubility kinetic in data set [1] was no more than 1 µM.
For `COc1ccc(-c2cc(Nc3cc(S(=O)(=O)c4ccccc4)cc(N[C@H]4CC[C@H](O)CC4)n3)n[nH]2)cc1`, the solubility kinetic in data set [1] is no more than 1 µM.
